Assay results published in patent US20260364145A1, “MODIFIED CAVEOLIN-1 PEPTIDE FORMULATIONS AND METHODS OF MANUFACTURING AND USE THEREOF” (REIN THERAPEUTICS, INC., priority 2023, published 2026).
Where “and” joins values, the source holds several entries; their conditions need not be identical. Equal values may be shown once. Read-outs that look alike come from different tables or passages of the source. Non-standard residues stand in square brackets, D forms with d. Residues, ends and D or L forms follow the SMILES beside them.

Assays:
[1] = Plasma pharmacokinetics after single-dose subcutaneous administration; format: in vivo, rat (Sprague Dawley); conditions: for plasma concentration / concentration at 1 h / concentration at 2 h / concentration at 4 h / concentration at 8 h / concentration at 24 h / concentration at 48 h / concentration at 96 h / concentration at 168 h / concentration at 240 h / concentration at 336 h / concentration at 528 h / concentration at 696 h / concentration at 840 h / concentration at 1008 h: SC 2.0 mg/kg, 2 mg/kg; for concentration at 1 h / concentration at 2 h / concentration at 4 h / concentration at 8 h / concentration at 24 h / concentration at 48 h / concentration at 96 h / concentration at 168 h / concentration at 240 h / concentration at 336 h / concentration at 528 h / concentration at 696 h / concentration at 840 h / concentration at 1008 h: rat, plasma, sc
Aqueous solubility = format: physicochemical
[2] = APi2355 concentrations in BALF and tissues at 42 days post-treatment (LC/MS/MS); format: in vivo, rat (Sprague Dawley); conditions: for BALF concentration / Heart concentration / Kidney concentration / Liver concentration / Lung concentration / Skin concentration: SC 2.0 mg/kg, listed as APi2335, 2 mg/kg, 60480 min; for concentration at 1008 h: rat, sc, 2 mg/kg
[3] = individual rats, Group 1, MSP #3 (W/O/W)
[4] = individual rats, Group 2, MSP #5 (S/O/W)

CC(=O)N[C@H](C)C(=O)N[C@H](C)C(=O)N[C@@H](CCC(=O)O)C(=O)NCC(=O)N[C@@H](CCCCN)C(=O)N[C@@H](C)C(=O)N[C@@H](CO)C(=O)N[C@@H](Cc1ccccc1)C(=O)N[C@H](C(=O)N[C@H](C(=O)N[C@@H](Cc1ccccc1)C(=O)N[C@H](C(=O)N[C@H](C(=O)N[C@H](C(=O)N[C@@H](CCCCN)C(=O)NCC(=O)N[C@@H](CO)C(=O)N[C@H](C)C(=O)N[C@H](C)C(N)=O)[C@@H](C)O)C(C)C)[C@@H](C)O)[C@@H](C)O)[C@@H](C)O [APi2355, Ac-aaEGKASFTTFTVTKGSaa-NH2] (Ac-[dA][dA]EGKASFTTFTVTKGS[dA][dA]-NH2)
plasma concentration ([1]; 1 hr, individual rats, Group 1, MSP #3 (W/O/W), 60 min): 16.02 ng/mL and 311.08 ng/mL
plasma concentration ([1]; 2 hr, individual rats, Group 1, MSP #3 (W/O/W), 120 min): 350.92 ng/mL and 558.41 ng/mL
plasma concentration ([1]; 4 hr, individual rats, Group 1, MSP #3 (W/O/W), 240 min): 501.64 ng/mL and 36.54 ng/mL
plasma concentration ([1]; 8 hr, individual rats, Group 1, MSP #3 (W/O/W), 480 min): 39.13 ng/mL and 12.62 ng/mL
plasma concentration ([1]; 1 day, individual rats, Group 1, MSP #3 (W/O/W), 1440 min): 34.98 ng/mL and 10.17 ng/mL
plasma concentration ([1]; 2 day, individual rats, Group 1, MSP #3 (W/O/W), 2880 min): 3.46 ng/mL
plasma concentration ([1]; 4 day, individual rats, Group 1, MSP #3 (W/O/W), 5760 min): 1.90 ng/mL
plasma concentration ([1]; 7 day, individual rats, Group 1, MSP #3 (W/O/W), 10080 min): 5.66 ng/mL
plasma concentration ([1]; 10 day, individual rats, Group 1, MSP #3 (W/O/W), 14400 min): 2.17 ng/mL
plasma concentration ([1]; 14 day, individual rats, Group 1, MSP #3 (W/O/W), 20160 min): 6.77 ng/mL and 6.89 ng/mL
plasma concentration ([1]; 22 day, individual rats, Group 1, MSP #3 (W/O/W), 31680 min): 7.52 ng/mL and 9.84 ng/mL
plasma concentration ([1]; 29 day, individual rats, Group 1, MSP #3 (W/O/W), 41760 min): 0.91 ng/mL and 1.57 ng/mL
plasma concentration ([1]; 35 day, individual rats, Group 1, MSP #3 (W/O/W), 50400 min): 0.32 ng/mL and 0.48 ng/mL
plasma concentration ([1]; 42 day, individual rats, Group 1, MSP #3 (W/O/W), 60480 min): 0.11 ng/mL and 4.85 ng/mL
fraction of total exposure in the first 3 weeks after SC administration ([1]; first 3 weeks, SC 2.0 mg/kg APi2355): Approximately ⅔
concentration at 1 h ([1]; 1 hr, mean, Group 1, MSP #3 (W/O/W)): 157 ng/mL
concentration at 1 h ([1]; 1 hr, mean, Group 2, MSP #5 (S/O/W)): 175 ng/mL
concentration at 2 h ([1]; 2 hr, mean, Group 1, MSP #3 (W/O/W)): 198 ng/mL
concentration at 2 h ([1]; 2 hr, mean, Group 2, MSP #5 (S/O/W)): 287 ng/mL
concentration at 4 h ([1]; 4 hr, mean, Group 1, MSP #3 (W/O/W)): 185 ng/mL
concentration at 4 h ([1]; 4 hr, mean, Group 2, MSP #5 (S/O/W)): 195 ng/mL
concentration at 8 h ([1]; 8 hr, mean, Group 1, MSP #3 (W/O/W)): 195 ng/mL
concentration at 8 h ([1]; 8 hr, mean, Group 2, MSP #5 (S/O/W)): 130 ng/mL
concentration at 24 h ([1]; 1 day, mean, Group 1, MSP #3 (W/O/W)): 10.7 ng/mL
concentration at 24 h ([1]; 1 day, mean, Group 2, MSP #5 (S/O/W)): 9.53 ng/mL
concentration at 48 h ([1]; 2 day, mean, Group 1, MSP #3 (W/O/W)): 3.2 ng/mL
concentration at 48 h ([1]; 2 day, mean, Group 2, MSP #5 (S/O/W)): 5.23 ng/mL
concentration at 96 h ([1]; 4 day, mean, Group 1, MSP #3 (W/O/W)): 3.22 ng/mL
concentration at 96 h ([1]; 4 day, mean, Group 2, MSP #5 (S/O/W)): 3.69 ng/mL
concentration at 168 h ([1]; 7 day, mean, Group 1, MSP #3 (W/O/W)): 3.34 ng/mL
concentration at 168 h ([1]; 7 day, mean, Group 2, MSP #5 (S/O/W)): 3.37 ng/mL
concentration at 240 h ([1]; 10 day, mean, Group 1, MSP #3 (W/O/W)): 5.22 ng/mL
concentration at 240 h ([1]; 10 day, mean, Group 2, MSP #5 (S/O/W)): 10.5 ng/mL
concentration at 336 h ([1]; 14 day, individual rats, Group 2, MSP #5 (S/O/W), read-out: plasma concentration): 0.98 ng/mL
concentration at 336 h ([1]; 14 day, mean, Group 1, MSP #3 (W/O/W), read-out: plasma concentration, Avg.): 5.41 ng/mL
concentration at 336 h ([1]; 14 day, mean, Group 2, MSP #5 (S/O/W), read-out: plasma concentration, Avg.): 1.14 ng/mL
concentration at 528 h ([1]; 22 day, mean, Group 1, MSP #3 (W/O/W)): 6.35 ng/mL
concentration at 528 h ([1]; 22 day, mean, Group 2, MSP #5 (S/O/W)): 5.26 ng/mL
concentration at 696 h ([1]; 29 day, mean, Group 1, MSP #3 (W/O/W)): 2.53 ng/mL
concentration at 696 h ([1]; 29 day, mean, Group 2, MSP #5 (S/O/W)): 2 ng/mL
concentration at 840 h ([1]; 35 day, mean, Group 1, MSP #3 (W/O/W)): 0.57 ng/mL
concentration at 840 h ([1]; 35 day, mean, Group 2, MSP #5 (S/O/W)): 0.26 ng/mL
concentration at 1008 h ([1]; 42 day, mean, Group 1, MSP #3 (W/O/W)): 1.2 ng/mL
concentration at 1008 h ([1]; 42 day, mean, Group 2, MSP #5 (S/O/W)): 0.72 ng/mL
aqueous solubility (Aqueous solubility): relatively low aqueous solubility
BALF concentration [2, 3]: 5.67 ng/mL and 1.45 ng/mL and 1.89 ng/mL and 1.47 ng/mL and 0.63 ng/mL and 1.53 ng/mL
Heart concentration [2, 3]: 10.46 ng/g and 13.81 ng/g and 8.97 ng/g and 11.09 ng/g and 3.41 ng/g and 8.39 ng/g
Kidney concentration [2, 3]: 63.91 ng/g and 53.55 ng/g and 30.02 ng/g and 62.91 ng/g and 57.32 ng/g and 66.29 ng/g
Liver concentration [2, 3]: 5.46 ng/g and 1.23 ng/g and 0.69 ng/g and 1.85 ng/g and 3.65 ng/g and 2.86 ng/g
Lung concentration [2, 3]: 37.40 ng/g and 29.17 ng/g and 36.51 ng/g and 62.92 ng/g and 36.86 ng/g and 38.80 ng/g
BALF concentration [2, 4]: 0.45 ng/mL and 0.23 ng/mL and 0.70 ng/mL and 0.52 ng/mL and 4.10 ng/mL and 2.17 ng/mL and 0.71 ng/mL
Heart concentration [2, 4]: 14.37 ng/g and 14.17 ng/g and 9.32 ng/g and 7.53 ng/g and 15.87 ng/g and 12.57 ng/g and 16.18 ng/g
Kidney concentration [2, 4]: 31.78 ng/g and 41.08 ng/g and 52.67 ng/g and 38.43 ng/g and 33.98 ng/g and 36.28 ng/g
Liver concentration [2, 4]: 8.34 ng/g and 8.26 ng/g and 0.24 ng/g and 0.47 ng/g and 1.33 ng/g and 4.81 ng/g and 5.22 ng/g
Lung concentration [2, 4]: 35.15 ng/g and 31.08 ng/g and 28.00 ng/g and 53.76 ng/g and 47.20 ng/g and 35.92 ng/g
Skin concentration ([2]; injection site skin, individual rats, Group 1, MSP #3 (W/O/W)): 29.72 ng/g and 13.12 ng/g and 14.02 ng/g and 20.81 ng/g and 2.28 ng/g and 31.92 ng/g
Skin concentration ([2]; injection site skin, individual rats, Group 2, MSP #5 (S/O/W)): 4.08 ng/g and 4.10 ng/g and 2.92 ng/g and 3.69 ng/g and 3.40 ng/g and 14.71 ng/g and 1.60 ng/g
concentration at 1008 h ([2]; balf, mean, Group 1, MSP #3 (W/O/W), read-out: BALF concentration, Avg.): 2.11 ng/mL
concentration at 1008 h ([2]; balf, mean, Group 2, MSP #5 (S/O/W), read-out: BALF concentration, Avg.): 1.27 ng/mL
concentration at 1008 h ([2]; heart, mean, Group 1, MSP #3 (W/O/W), read-out: Heart concentration, Avg.): 9.35 ng/g
concentration at 1008 h ([2]; heart, mean, Group 2, MSP #5 (S/O/W), read-out: Heart concentration, Avg.): 12.9 ng/g
concentration at 1008 h ([2]; injection site skin, injection site skin, mean, Group 1, MSP #3 (W/O/W), read-out: Skin concentration, Avg.): 18.6 ng/g
concentration at 1008 h ([2]; injection site skin, injection site skin, mean, Group 2, MSP #5 (S/O/W), read-out: Skin concentration, Avg.): 4.93 ng/g
concentration at 1008 h ([2]; kidney, individual rats, Group 2, MSP #5 (S/O/W), read-out: Kidney concentration): 33.1 ng/g
concentration at 1008 h ([2]; kidney, mean, Group 1, MSP #3 (W/O/W), read-out: Kidney concentration, Avg.): 55.7 ng/g
concentration at 1008 h ([2]; kidney, mean, Group 2, MSP #5 (S/O/W), read-out: Kidney concentration, Avg.): 38.2 ng/g
concentration at 1008 h ([2]; liver, mean, Group 1, MSP #3 (W/O/W), read-out: Liver concentration, Avg.): 2.62 ng/g
concentration at 1008 h ([2]; liver, mean, Group 2, MSP #5 (S/O/W), read-out: Liver concentration, Avg.): 4.09 ng/g
concentration at 1008 h ([2]; lung, individual rats, Group 2, MSP #5 (S/O/W), read-out: Lung concentration): 35.9 ng/g
concentration at 1008 h ([2]; lung, mean, Group 1, MSP #3 (W/O/W), read-out: Lung concentration, Avg.): 40.3 ng/g
concentration at 1008 h ([2]; lung, mean, Group 2, MSP #5 (S/O/W), read-out: Lung concentration, Avg.): 38.1 ng/g
